Results reported in patent US20040186166A1, “Cannabinoid analogs as peroxisome proliferator activated nuclear receptor gamma activators” (priority 2002, published 2004).

What was measured:
PPARδ = target: T1, PPARδ (Mus musculus, UniProt P35396); experiment: Partial protease (trypsin) digestion assay, PPARδ; assay type: binding; conditions: 2, 20 and 100 μM AJA
T1 construct: expressed in transfected cells; host or cells: HEK293 / HEK293T
T1 sequence (P35396 1-440): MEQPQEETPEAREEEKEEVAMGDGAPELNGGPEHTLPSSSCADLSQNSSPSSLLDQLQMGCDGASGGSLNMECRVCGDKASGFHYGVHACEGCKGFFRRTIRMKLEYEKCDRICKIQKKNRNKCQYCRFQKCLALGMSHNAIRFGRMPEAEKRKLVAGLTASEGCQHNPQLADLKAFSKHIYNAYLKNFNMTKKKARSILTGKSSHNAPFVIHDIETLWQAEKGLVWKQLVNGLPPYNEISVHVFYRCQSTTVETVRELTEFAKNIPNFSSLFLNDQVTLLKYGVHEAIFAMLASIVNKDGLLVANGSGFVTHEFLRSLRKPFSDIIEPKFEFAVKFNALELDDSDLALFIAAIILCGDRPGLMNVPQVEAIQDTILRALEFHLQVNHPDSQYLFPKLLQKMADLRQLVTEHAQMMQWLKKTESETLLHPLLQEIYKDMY
Protocol: Partial protease digestion was carried out as described by Leng et. al. (J Steroid Biochem Mol Biol 46:643-61, 1993). PPAR proteins were made by in vitro transcription/translation reactions in reticulocyte lysate according to the manufacture's instructions (Promega). AJA, GW347845, or vehicle alone was incubated with the 35S-labeled PPARs at room temperature for one hour before trypsin digestion. Reactions were stopped by boiling in SDS-containing sample buffer, and lysates were subjected to SDS-PAGE and autoradiography.
The PPAR proteins were synthesized and labeled with ^35S-methionine in reticulocyte lysate and incubated with AJA, GW347845, or vehicle alone at room temperature for one hour before trypsin digestion. The reactions were terminated by boiling in SDS-containing protein sample buffer. The proteolytic patterns of PPAR proteins were then analyzed by SDS-PAGE and autoradiography, and compared with vehicle-treated control samples.
The AJA concentrations required to protect PPARγ from trypsin digestion were further measured.

human IL-8 promoter = experiment: IL-8 promoter luciferase assay, HeLa cells with wild type PPARγ; assay type: cell-based
Protocol: (§1) For PPARγ activation assay, HEK293 cells were plated in 12-well cell culture plates and maintained in Dulbecco's modified Eagle's medium (DMEM) supplemented with 10% fetal bovine serum (FBS) at 37° C. under 5% CO2. Cells were changed to phenol red-free DMEM supplemented with 10% charcoal-stripped fetal bovine serum 3 hours before transfection by a standard calcium-phosphate precipitation method. Twelve hours after transfection, the cells were washed with phosphate-buffered saline (PBS) and fed again with fresh medium containing the indicated concentrations of compounds. After 36 hours, cells were harvested for β-galactosidase and luciferase activities as described previously (Li et al., Proc Natl Acad Sci USA 94:8479-84, 1997). The average normalized luciferase activity was determined via triplicate experiments. For IL-8 promoter assay, HeLa cells were maintained and transfected in the same way as described above. After transfection, cells were recovered for 4 hours before treatment with AJA, GW347845, or solvent. After 3-4 hours, cells were treated with or without 25 nM of phorbol myristate acetate (PMA) for 24 hours.
The IL-8 luciferase reporter controlled by the human IL-8 promoter (-97/-69) was cotransfected with mPPARγ or mPPARγ ΔAF2 mutant into HeLa cells. After transfection, cells were treated with AJA, GW347845 or solvent after PMA treatment for 24 hours. This was performed by determining the effect of AJA on IL-8 promoter activity and the role of PPARγ in this process. IL-8 is a biomarker for inflammation, and reduction of IL-8 levels correlates with a decrease in inflammation. The involvement of PPARγ in regulating IL-8 promoter activity was determined by comparing the IL-8 promoter activity in the presence of wild type PPARγ or its ΔAF2 mutant. In the experiment illustrated in FIG. 6A, PMA stimulated IL-8 promoter activity 3 fold, which was set as 100% promoter activity.

PPARγ ΔAF2 mutant = target: T2, PPARγ ΔAF2 mutant (Mus musculus, UniProt P37238); experiment: PPRE-Luc reporter assay, AF-2 helix-truncated PPARγ; assay type: cell-based
T2 construct: introduce a stop codon and a NheI restriction site after amino acid 489; expressed in transfected cells; host or cells: HEK293
T2 sequence (P37238 1-459 isoform P37238-2): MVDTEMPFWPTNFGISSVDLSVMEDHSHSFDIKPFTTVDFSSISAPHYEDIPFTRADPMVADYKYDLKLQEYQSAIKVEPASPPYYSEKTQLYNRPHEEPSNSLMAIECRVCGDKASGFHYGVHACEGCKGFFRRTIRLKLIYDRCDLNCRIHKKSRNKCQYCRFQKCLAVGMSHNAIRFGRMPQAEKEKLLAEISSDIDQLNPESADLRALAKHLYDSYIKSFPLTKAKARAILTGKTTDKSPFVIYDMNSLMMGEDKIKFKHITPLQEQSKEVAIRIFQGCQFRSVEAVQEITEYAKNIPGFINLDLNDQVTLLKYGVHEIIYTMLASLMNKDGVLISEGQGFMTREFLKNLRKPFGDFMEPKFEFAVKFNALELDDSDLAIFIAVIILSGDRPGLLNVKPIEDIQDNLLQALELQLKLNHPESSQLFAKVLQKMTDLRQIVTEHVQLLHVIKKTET
From the text: The-pCMX-Gal4-mPPARγ1 was constructed by fusing the mPPARγ1 coding sequence to the yeast GAL4 DNA binding domain (amino acid 1-147) in the pCMX vector. The AF-2 helix-truncated mutant of mPPARγ1 (PPARγ ΔAF2) was generated by PCR amplification-to introduce a stop codon and a NheI restriction site after amino acid 489, and then-subcloned into the pCMX vector. The PPRE-TK-LUC, MH100-TK-LUC-and DR1-TK-LUC reporters have been described previously (Forman et al., Cell 83:803-812, 1995; Umesono et al., Cell 65:1255-1266, 1991).
as §1, with “For IL-8 promoter assay, HeLa cells were maintained and transfected in the same way as described above. After transfection, cells were recovered for 4 hours before treatment with AJA, GW347845, or solvent. After 3-4 hours, cells were treated with or without 25 nM of phorbol myristate acetate (PMA) for 24 hours.” left out

SMILES: CCCCCCC(C)(C)c1cc(O)c2c(c1)OC(C)(C)[C@@H]1CC=C(C(=O)O)C[C@@H]21 [AJA, dimethylheptyl-THC-11-oic acid]
- proteinase sensitivity of PPARδ (PPARδ): did not affect the proteinase sensitivity
- reduction of PMA-stimulated IL-8 promoter activity (human IL-8 promoter; 20 μM, HeLa cells): about 40%
- significance of the reduction of IL-8 promoter activity (human IL-8 promoter; 10 and 20 μM AJA): statistically significant
- activation of PPRE-Luc reporter through PPARγ ΔAF2 mutant (PPARγ ΔAF2 mutant): failed to activate expression of the reporter gene
